Measurements taken from ChEMBL document CHEMBL3045330, “Antimicrobial and anticancer effects of some 2-(substitutedsulfanyl)-N-(5-methyl-isoxazol-3-yl)acetamide derivatives” (Med Chem Res, 2013).
≈ marks a conversion by molar mass, not a printed value.

Tests used:
Candida albicans = assay: Antifungal activity against Candida albicans assessed as growth inhibition by CLSI broth microdilution method; type: functional
Pseudomonas aeruginosa = assay: Antibacterial activity against Pseudomonas aeruginosa ATCC 254992 assessed as growth inhibition by CLSI broth microdilution method; type: functional
C6 [1] = assay: Inhibition of nuclear DNA synthesis in Rattus norvegicus (rat) C6 cells assessed as decrease in incorporation of bromo deoxyuridine during S phase of cell cycle at 0.8 to 3.2 uM by colorimetric method; type: cell-based; details: TDE = time-dependent effect
HT-29 [2] = assay: Inhibition of nuclear DNA synthesis in Homo sapiens (human) HT-29 cells assessed as decrease in incorporation of bromo deoxyuridine during S phase of cell cycle at 0.8 to 3.2 uM by colorimetric method; type: cell-based; details: TDE = time-dependent effect
C6 [3] = assay: Inhibition of nuclear DNA synthesis in Rattus norvegicus (rat) C6 cells assessed as decrease in incorporation of bromo deoxyuridine during S phase of cell cycle after 24 to 48 hr by colorimetric method; type: cell-based
HT-29 [4] = assay: Inhibition of nuclear DNA synthesis in Homo sapiens (human) HT-29 cells assessed as decrease in incorporation of bromo deoxyuridine during S phase of cell cycle after 24 to 48 hr by colorimetric method; type: cell-based
C6 [5] = assay: Cytotoxicity against Rattus norvegicus (rat) C6 cells assessed as cell viability after 24 hr by MTT assay; type: functional, cell-based; details: C6, 24 h
HT-29 [6] = assay: Cytotoxicity against Homo sapiens (human) HT-29 cells assessed as cell viability after 24 hr by MTT assay; type: functional, cell-based; details: HT-29, 24 h
Escherichia coli = assay: Antibacterial activity against Escherichia coli ATCC 25922 assessed as growth inhibition by CLSI broth microdilution method; type: functional
Enterococcus faecalis = assay: Antibacterial activity against Enterococcus faecalis ATCC 29212 assessed as growth inhibition by CLSI broth microdilution method; type: functional
Staphylococcus aureus = assay: Antibacterial activity against Staphylococcus aureus NRRL B-767 assessed as growth inhibition by CLSI broth microdilution method; type: functional
HT-29 [7] = assay: Inhibition of nuclear DNA synthesis in Homo sapiens (human) HT-29 cells assessed as decrease in incorporation of bromo deoxyuridine during S phase of cell cycle at 3.2 uM after 48 hr by colorimetric method relative to untreated control; type: cell-based
C6 [8] = assay: Inhibition of nuclear DNA synthesis in Rattus norvegicus (rat) C6 cells assessed as decrease in incorporation of bromo deoxyuridine during S phase of cell cycle at 3.2 uM after 24 hr by colorimetric method relative to untreated control; type: cell-based
C6 [9] = assay: Inhibition of nuclear DNA synthesis in Rattus norvegicus (rat) C6 cells assessed as decrease in incorporation of bromo deoxyuridine during S phase of cell cycle at 3.2 uM after 48 hr by colorimetric method relative to untreated control; type: cell-based

Structure (SMILES)	MIC (Candida albicans)	MIC (Pseudomonas aeruginosa)	MIC (Escherichia coli)	MIC (Enterococcus faecalis)	MIC (Staphylococcus aureus)	inhibition (C6 [1])	inhibition (HT-29 [2])	inhibition (C6 [3])	inhibition (HT-29 [4])	IC50 (C6 [5])	IC50 (HT-29 [6])	inhibition (HT-29 [7])	inhibition (C6 [8])	inhibition (C6 [9])
Cc1cc(NC(=O)CSc2nc3ccccc3s2)no1	200 µg/mL (≈ 655 µM)	200 µg/mL (≈ 655 µM)	400 µg/mL (≈ 1310 µM)	400 µg/mL (≈ 1310 µM)	200 µg/mL (≈ 655 µM)	tde	tde	Dose-dependent effect	Dose-dependent effect	210 nM	400 nM			
CC(=O)N1CCN(c2ccc(OCC3COC(Cn4ccnc4)(c4ccc(Cl)cc4Cl)O3)cc2)CC1 (stereo not given) [KETOCONAZOLE]	100 µg/mL (≈ 188 µM)													
O=C(N[C@H](CO)[C@H](O)c1ccc([N+](=O)[O-])cc1)C(Cl)Cl [CHLORAMPHENICOL]		50 µg/mL (≈ 155 µM)	100 µg/mL (≈ 309 µM)	100 µg/mL (≈ 309 µM)	50 µg/mL (≈ 155 µM)									
Cc1cc(NC(=O)CSc2nc3ccccc3[nH]2)no1	200 µg/mL (≈ 694 µM)	200 µg/mL (≈ 694 µM)	400 µg/mL (≈ 1390 µM)	400 µg/mL (≈ 1390 µM)	200 µg/mL (≈ 694 µM)	tde	tde	Dose-dependent effect	Dose-dependent effect	100 nM	90 nM	80%	> 50%	70%
Cc1cc(NC(=O)CSc2nc3ccccc3o2)no1	200 µg/mL (≈ 691 µM)	200 µg/mL (≈ 691 µM)	400 µg/mL (≈ 1380 µM)	400 µg/mL (≈ 1380 µM)	200 µg/mL (≈ 691 µM)	tde	tde	Dose-dependent effect	Dose-dependent effect	440 nM	220 nM	80%	> 50%	70%

More lines, main results first:

MIC (Candida albicans)	MIC (Pseudomonas aeruginosa)	MIC (Escherichia coli)	MIC (Enterococcus faecalis)	MIC (Staphylococcus aureus)	Structure (SMILES)	inhibition (C6 [1])	inhibition (HT-29 [2])	inhibition (C6 [3])	inhibition (HT-29 [4])	IC50 (C6 [5])	IC50 (HT-29 [6])	inhibition (HT-29 [7])	inhibition (C6 [8])	inhibition (C6 [9])
100 µg/mL (≈ 370 µM)	200 µg/mL (≈ 740 µM)	400 µg/mL (≈ 1480 µM)	400 µg/mL (≈ 1480 µM)	200 µg/mL (≈ 740 µM)	Cc1cc(NC(=O)CSc2nnc(C)s2)no1					580 nM	670 nM			
100 µg/mL (≈ 395 µM)	100 µg/mL (≈ 395 µM)	400 µg/mL (≈ 1580 µM)	400 µg/mL (≈ 1580 µM)	200 µg/mL (≈ 790 µM)	Cc1cc(NC(=O)CSc2nncn2C)no1					1470 nM	1020 nM			
100 µg/mL (≈ 418 µM)	100 µg/mL (≈ 418 µM)	400 µg/mL (≈ 1670 µM)	400 µg/mL (≈ 1670 µM)	200 µg/mL (≈ 836 µM)	Cc1cc(NC(=O)CSc2nc[nH]n2)no1					3190 nM	1130 nM			
100 µg/mL (≈ 316 µM)	100 µg/mL (≈ 316 µM)	400 µg/mL (≈ 1260 µM)	400 µg/mL (≈ 1260 µM)	200 µg/mL (≈ 632 µM)	Cc1cc(NC(=O)CSc2nnnn2-c2ccccc2)no1					640 nM	740 nM			
100 µg/mL (≈ 393 µM)	100 µg/mL (≈ 393 µM)	400 µg/mL (≈ 1570 µM)	400 µg/mL (≈ 1570 µM)	200 µg/mL (≈ 787 µM)	Cc1cc(NC(=O)CSc2nnnn2C)no1					1210 nM				
200 µg/mL (≈ 805 µM)	200 µg/mL (≈ 805 µM)	400 µg/mL (≈ 1610 µM)	400 µg/mL (≈ 1610 µM)	200 µg/mL (≈ 805 µM)	Cc1cc(NC(=O)CSc2ccccc2)no1									
100 µg/mL (≈ 396 µM)	200 µg/mL (≈ 793 µM)	400 µg/mL (≈ 1590 µM)	400 µg/mL (≈ 1590 µM)	200 µg/mL (≈ 793 µM)	Cc1cc(NC(=O)CSc2nccn2C)no1					1410 nM	1130 nM			
